From patent US20110190137A1, “METHOD TO INHIBIT ETHYLENE RESPONSES IN PLANTS” (priority 2003, published 2011) come the findings set out here.

The subject of the first assay is ethylene-induced epinasty in Patio variety tomato plants. The assay can be described thus: Tomato epinasty test, volatile gas treatment. Format: in vivo. Particulars: gas 10 ppm v/v; 10 ppm ethylene; scale 0 to 10 (10 = complete protection). On the procedure:
(§1) Objective: The test procedure is designed to determine the ability of an experimental compound to block the epinastic growth response induced by ethylene in tomato plants when the experimental compound is administered either as a volatile gas or as a component of a spray solution.
(§2) Treatment chambers are of an appropriate size for the test plants and are airtight. Each is fitted with a reusable septum to be used for injection of ethylene. Test plants are Patio variety tomato seedlings planted two plants per three inch square plastic pot.
Volatile gas treatment entails placing two pots of Patio var. tomatoes into a polystyrene 4.8 L volume treatment chamber along with one-half (upper or lower section) of a 50×9 mm plastic Petri dish containing a Gelman filter pad. The appropriate amount of experimental compound, dissolved in 1.0 ml acetone, is pipetted onto the filter pad and the chamber immediately sealed. Four hours later ethylene gas equal to 10 ppm v/v final concentration is injected into the sealed chamber. Sixteen hours later the chambers are opened in an exhaust hood, allowed to air and the plants scored visually for the degree of protection against ethylene-induced epinasty conferred by the experimental compound when compared to ethylene treated and untreated controls on a scale of 0 to 10. A rating of 10 means complete protection. A rating of 0 means no protection from the effects of ethylene. Gas treatment concentrations are volume/volume.
`CC[Si](CC)(CC)CC1=CC1` [Compound 63, 1-Triethylsilylmethylcyclopropene]: the “Gas @ 10 ppm: visual rating of protection against ethylene-induced epinasty” value (shortened to “Gas @ 10 ppm: visual rating”) stood at 10.

Turning to `C[Si](C)(C)CC1=CC1` [Compound 64, 1-Trimethylsilylmethylcyclopropene], the “Gas @ 10 ppm: visual rating” value is 10.

In the case of `C[Si](C)(C)CCCCCCC1C=C1` [Compound 65, 6-(Trimethylsilyl)-hexylcycloprop-2-ene], the “Gas @ 10 ppm: visual rating” value worked out at 10.

With `C[Si](C)(C)CCC1C=C1` [Compound 66, 2-(Trimethylsilyl)-ethylcycloprop-2-ene], the “Gas @ 10 ppm: visual rating” value was 10.

`CCCCCCCCC1=C([Si](C)(C)C)C1` [Compound 67, 2-Octyl-1-trimethylsilylcyclopropene]: the “Gas @ 10 ppm: visual rating” value is 6.

In the case of `CS(=O)(=O)OCCC1=CC1` [Compound 68, 1-(2-Methanesulfonyloxyethyl)-cyclopropene], the “Gas @ 10 ppm: visual rating” value is 3.

As to `CS(=O)(=O)OCCCCCCCC1=CC1` [Compound 69, 1-(7-Methanesulfonyloxyheptyl)-cyclopropene], the “Gas @ 10 ppm: visual rating” value was determined as 0.

With `CCSCCCCCCCC1=CC1` [Compound 70, 1-(7-Ethanethioheptyl)-cyclopropene], the “Gas @ 10 ppm: visual rating” value worked out at 2.

Regarding `CCCCCCCCC1=C(Br)C1` [Compound 71, 1-Bromo-2-octyl-cyclopropene], the “Gas @ 10 ppm: visual rating” value is 1.

In the case of `CCCCCC1(C)C=C1` [Compound 72, 3-Methyl-3-pentyl-cyclopropene], the “Gas @ 10 ppm: visual rating” value turned out to be 0.

With `CCCCCCCCCC1(C)C=C1` [Compound 73, 3-Methyl-3-nonyl-cyclopropene], the “Gas @ 10 ppm: visual rating” value is 0.

For `CCCCCCCC1=C(C)C1` [Compound 74, 1-Heptyl-2-methyl-cyclopropene], the “Gas @ 10 ppm: visual rating” value is 0.

With `CC(=O)OCOC(=O)CCC1=C(Br)C1` [Compound 75], the “Gas @ 10 ppm: visual rating” value is 10.

In the case of `CCOC(=O)CCC1=C(Br)C1` [Compound 76], the “Gas @ 10 ppm: visual rating” value is given as 10.

Consider `O=C(O)CCC1=C(Br)C1` [Compound 77], for which the “Gas @ 10 ppm: visual rating” value amounted to 8.

With `CCCCCCCCC1=CC1C(=O)O` (stereo not drawn) [Compound 78, 1-Octyl-3-carboxy-cyclopropene], the “Gas @ 10 ppm: visual rating” value is 0.

As to `CCCC[Si](C)(C)C1=C(C)C1` [Compound 80, 1-(Butyldimethylsilyl)-2-methylcyclopropene], the “Gas @ 10 ppm: visual rating” value is reported as 0.

For `CC[Si](CC)(CC)C1=C(C)C1` [Compound 81, 1-Triethylsilyl-2-methylcyclopropene], the “Gas @ 10 ppm: visual rating” value was 0.

`CC(C)(C)[Si](C)(C)OCCCCCCCC1=CC1` [Compound 82, 1-(7-T-butyldimethylsilyloxyheptyl)-cyclopropene]: the “Gas @ 10 ppm: visual rating” value is given as 3.

With `CCC1=C(COS(C)(=O)=O)C1` [Compound 83, 1-(Methanesulfonyloxymethyl)-2-ethylcyclopropene], the “Gas @ 10 ppm: visual rating” value came to 4.

Turning to `CCOP(=S)(OCC)SCC1=C(CC)C1` [Compound 84, 1-(Diethoxy-thiophosphorylthiomethyl)-2-ethylcyclopropene], the “Gas @ 10 ppm: visual rating” value is listed as 0.

Regarding `CS(=O)(=O)OCCCCC1=CC1` [Compound 85, 1-(4-Methanesulfonyloxybutyl)-cyclopropene], the “Gas @ 10 ppm: visual rating” value is 0.

`CCCCCCCCC1=C(B(O)O)C1` [Compound 86, 2-Octyl-1-(boronic acid)-cyclopropene]: the “Gas @ 10 ppm: visual rating” value came out at 10.

The same assay, now with this note: gas 500 ppm; scale 0 to 10.
For `CCCCCCCCC1=CC1C(=O)O` (stereo not drawn) [Compound 78, 1-Octyl-3-carboxy-cyclopropene], the “Gas @ 500 ppm: rating of protection against epinasty” value is 10.

Staying with this assay, now noted: gas 1000 ppm v/v; 10 ppm ethylene after 4 h, scored 16 h later; scale 0 (no protection) to 10 (complete protection).
As to `CS(=O)(=O)OCCC1=CC1` [Compound 68, 1-(2-Methanesulfonyloxyethyl)-cyclopropene], the “Gas @ 1000 ppm: visual rating of protection against ethylene-induced epinasty” value (“Gas @ 1000 ppm: visual rating” for short) was found to be 10.

As to `CS(=O)(=O)OCCCCCCCC1=CC1` [Compound 69, 1-(7-Methanesulfonyloxyheptyl)-cyclopropene], the “Gas @ 1000 ppm: visual rating” value is reported as 8.

In the case of `CCCCCCCCC1=C(Br)C1` [Compound 71, 1-Bromo-2-octyl-cyclopropene], the “Gas @ 1000 ppm: visual rating” value is given as 10.

As to `CCCCCC1(C)C=C1` [Compound 72, 3-Methyl-3-pentyl-cyclopropene], the “Gas @ 1000 ppm: visual rating” value turned out to be 9.

Consider `CCCCCCCCCC1(C)C=C1` [Compound 73, 3-Methyl-3-nonyl-cyclopropene], for which the “Gas @ 1000 ppm: visual rating” value was determined as 8.

For the compound `CCCCCCCC1=C(C)C1` [Compound 74, 1-Heptyl-2-methyl-cyclopropene], the “Gas @ 1000 ppm: visual rating” value is given as 10.

Turning to `CCCCCCCCC1=CC1C(=O)O` (stereo not drawn) [Compound 78, 1-Octyl-3-carboxy-cyclopropene], the “Gas @ 1000 ppm: visual rating” value is reported as 5.

For `CCCC[Si](C)(C)C1=C(C)C1` [Compound 80, 1-(Butyldimethylsilyl)-2-methylcyclopropene], the “Gas @ 1000 ppm: visual rating” value worked out at 7.

Turning to `CC[Si](CC)(CC)C1=C(C)C1` [Compound 81, 1-Triethylsilyl-2-methylcyclopropene], the “Gas @ 1000 ppm: visual rating” value was 10.

Take `CC(C)(C)[Si](C)(C)OCCCCCCCC1=CC1` [Compound 82, 1-(7-T-butyldimethylsilyloxyheptyl)-cyclopropene]: the “Gas @ 1000 ppm: visual rating” value came out at 10.

Consider `CCC1=C(COS(C)(=O)=O)C1` [Compound 83, 1-(Methanesulfonyloxymethyl)-2-ethylcyclopropene], for which the “Gas @ 1000 ppm: visual rating” value came to 10.

For `CCOP(=S)(OCC)SCC1=C(CC)C1` [Compound 84, 1-(Diethoxy-thiophosphorylthiomethyl)-2-ethylcyclopropene], the “Gas @ 1000 ppm: visual rating” value came to 10.

For the compound `CS(=O)(=O)OCCCCC1=CC1` [Compound 85, 1-(4-Methanesulfonyloxybutyl)-cyclopropene], the “Gas @ 1000 ppm: visual rating” value worked out at 10.

Another assay shares this test system. Description: Tomato epinasty test, spray application treatment. The settings on record: spray 10 ppm in 10% acetone/90% water, 0.05% Silwett L-77; 10 ppm ethylene; scale 0 to 10 (10 = complete protection). Format: in vivo. Here is the method: as §1, §2
Spray application treatment entails using a DeVilbiss atomizer to completely cover all foliage and stems of two pots of Patio var. tomato plants with the appropriate amount of experimental compound dissolved in 10% acetone/90% water with 0.05% Silwett L-77 surfactant. Plants are air-dried in a drying hood for four hours then transferred to a 4.8 L polystyrene chamber which is sealed.
Ethylene gas equal to 10 ppm v/v final concentration is injected into the sealed chamber. Sixteen hours later the chambers are opened in an exhaust hood, allowed to air and the plants scored visually for the degree of protection against ethylene-induced epinasty conferred by the experimental compound when compared to ethylene treated and untreated controls on a scale of 0 to 10. A rating of 10 means complete protection. A rating of 0 means no protection from the effects of ethylene.
With `CC[Si](CC)(CC)CC1=CC1` [Compound 63, 1-Triethylsilylmethylcyclopropene], the “Spray @10 ppm: visual rating of protection against ethylene-induced epinasty” value (“Spray @10 ppm: visual rating” below) is listed as 10.

`C[Si](C)(C)CC1=CC1` [Compound 64, 1-Trimethylsilylmethylcyclopropene]: the “Spray @10 ppm: visual rating” value is reported as 9.

In the case of `C[Si](C)(C)CCCCCCC1C=C1` [Compound 65, 6-(Trimethylsilyl)-hexylcycloprop-2-ene], the “Spray @10 ppm: visual rating” value is on record as 6.

For `C[Si](C)(C)CCC1C=C1` [Compound 66, 2-(Trimethylsilyl)-ethylcycloprop-2-ene], the “Spray @10 ppm: visual rating” value amounted to 10.

On to `CCCCCCCCC1=C([Si](C)(C)C)C1` [Compound 67, 2-Octyl-1-trimethylsilylcyclopropene], for which the “Spray @10 ppm: visual rating” value was 3.

Take `CS(=O)(=O)OCCC1=CC1` [Compound 68, 1-(2-Methanesulfonyloxyethyl)-cyclopropene]: the “Spray @10 ppm: visual rating” value is listed as 5.

Take `CS(=O)(=O)OCCCCCCCC1=CC1` [Compound 69, 1-(7-Methanesulfonyloxyheptyl)-cyclopropene]: the “Spray @10 ppm: visual rating” value is reported as 0.

Regarding `CCSCCCCCCCC1=CC1` [Compound 70, 1-(7-Ethanethioheptyl)-cyclopropene], the “Spray @10 ppm: visual rating” value turned out to be 10.

Take `CCCCCCCCC1=C(Br)C1` [Compound 71, 1-Bromo-2-octyl-cyclopropene]: the “Spray @10 ppm: visual rating” value came to 3.

Turning to `CCCCCC1(C)C=C1` [Compound 72, 3-Methyl-3-pentyl-cyclopropene], the “Spray @10 ppm: visual rating” value was found to be 2.

For the compound `CCCCCCCCCC1(C)C=C1` [Compound 73, 3-Methyl-3-nonyl-cyclopropene], the “Spray @10 ppm: visual rating” value is 0.

In the case of `CCCCCCCC1=C(C)C1` [Compound 74, 1-Heptyl-2-methyl-cyclopropene], the “Spray @10 ppm: visual rating” value was 0.

On to `CC(=O)OCOC(=O)CCC1=C(Br)C1` [Compound 75], for which the “Spray @10 ppm: visual rating” value amounted to 0.

As to `CCOC(=O)CCC1=C(Br)C1` [Compound 76], the “Spray @10 ppm: visual rating” value is 0.

With `O=C(O)CCC1=C(Br)C1` [Compound 77], the “Spray @10 ppm: visual rating” value was 2.

For the compound `CCCCCCCCC1=CC1C(=O)O` (stereo not drawn) [Compound 78, 1-Octyl-3-carboxy-cyclopropene], the “Spray @10 ppm: visual rating” value is given as 0.

As to `CCCC[Si](C)(C)C1=C(C)C1` [Compound 80, 1-(Butyldimethylsilyl)-2-methylcyclopropene], the “Spray @10 ppm: visual rating” value came to 0.

Consider `CC[Si](CC)(CC)C1=C(C)C1` [Compound 81, 1-Triethylsilyl-2-methylcyclopropene], for which the “Spray @10 ppm: visual rating” value is listed as 0.

In the case of `CC(C)(C)[Si](C)(C)OCCCCCCCC1=CC1` [Compound 82, 1-(7-T-butyldimethylsilyloxyheptyl)-cyclopropene], the “Spray @10 ppm: visual rating” value was 0.

For the compound `CCC1=C(COS(C)(=O)=O)C1` [Compound 83, 1-(Methanesulfonyloxymethyl)-2-ethylcyclopropene], the “Spray @10 ppm: visual rating” value was found to be 2.

For the compound `CCOP(=S)(OCC)SCC1=C(CC)C1` [Compound 84, 1-(Diethoxy-thiophosphorylthiomethyl)-2-ethylcyclopropene], the “Spray @10 ppm: visual rating” value stood at 0.

For `CS(=O)(=O)OCCCCC1=CC1` [Compound 85, 1-(4-Methanesulfonyloxybutyl)-cyclopropene], the “Spray @10 ppm: visual rating” value is on record as 0.

For the compound `CCCCCCCCC1=C(B(O)O)C1` [Compound 86, 2-Octyl-1-(boronic acid)-cyclopropene], the “Spray @10 ppm: visual rating” value was 0.
